This passage reports IC90 results from patent publication US12679824B2 (Hoffmann-La Roche Inc., priority 2020, dated 2026).

One test relates to Acinetobacter baumannii ATCC17961. In words: 90% Growth Inhibitory Concentration (IC90) determination, antimicrobial susceptibility testing. The format is cell-based. The settings on record: Acinetobacter baumannii, ATCC17961, 16 h, Acinetobacter baumannii ATCC17961; Iso-Sensitest broth; growth by optical density at 600 nm over 16h; concentration inhibiting 90% of the growth; read-out: ATCC 17961 IC90. How it is done: Antimicrobial Susceptibility Testing:
90% Growth Inhibitory Concentration (IC90) Determination
The in vitro antimicrobial activity of the compounds was determined according to the following procedure:
The assay used a 10-points Iso-Sensitest broth medium to measure quantitatively the in vitro activity of the compounds against Acinetobacter baumannii ATCC17961.
Stock compounds in DMSO were serially twofold diluted (e.g. range from 50 to 0.097 μM final concentration) in 384 wells microtiter plates and inoculated with 49 μl the bacterial suspension in Iso-Sensitest medium to have a final cell concentration of ~5×10^(5) CFU/ml in a final volume/well of 50 ul/well. Microtiter plates were incubated at 35±2° C.
Bacterial cell growth was determined with the measurement of optical density at λ=600 nm each 20 minutes over a time course of 16h. Growth inhibition was calculated during the logarithmic growth of the bacterial cells with determination of the concentration inhibiting 50% (IC50) and 90% (IC90) of the growth.
Table 1 provides the 90% growth inhibitory concentrations (IC90) in micromoles per liter of the compounds of present invention obtained against the strain Acinetobacter baumannii ATCC17961.
By IC90 is commonly meant the concentration at which the effect reaches the 90% level. Consider `Cn1c(-c2cn(-c3ccc(NC(=O)C4CCNCC4)cn3)nc2C(F)(F)F)cnc1C(=O)Nc1ccc(C(=O)N2CCN(C(=O)C3CCNCC3)CC2)c(Cl)c1` [Example Z88, N-[6-[4-[2-[[3-chloro-4-(4-isonipecotoylpiperazine-1-carbonyl)phenyl]carbamoyl]-3-methyl-imidazol-4-yl]-3-(trifluoromethyl)pyrazol-1-yl]-3-pyridyl]isonipecotamide], for which the concentration for an effect of 90% (IC90) was determined as 980 nM. With `Cn1c(-c2cn(-c3ccc([N+](=O)[O-])cn3)nc2C(F)(F)F)cnc1C(=O)Nc1ccc(C(=O)N2CCN(C(=O)[C@H]3NCC[C@@H]3O)CC2)c(Cl)c1` [Example C17, N-[3-chloro-4-[4-[(2S,3S)-3-hydroxypyrrolidine-2-carbonyl]piperazine-1-carbonyl]phenyl]-1-methyl-5-[1-(5-nitro-2-pyridyl)-3-(trifluoromethyl)pyrazol-4-yl]imidazole-2-carboxamide], the IC90 amounted to 790 nM. Consider `CC[C@H]1CNCCN1C(=O)c1ccc(NC(=O)c2ncc(-c3cn(-c4ccc(N)cn4)nc3C(F)(F)F)n2C)cc1Cl` [Example Z64, 5-[1-(5-amino-2-pyridyl)-3-(trifluoromethyl)pyrazol-4-yl]-N-[3-chloro-4-[(2S)-2-ethylpiperazine-1-carbonyl]phenyl]-1-methyl-imidazole-2-carboxamide], for which the IC90 turned out to be 440 nM. With `Cn1c(-c2cn(-c3ccnc(Cl)c3)nc2C(F)(F)F)cnc1C(=O)Nc1ccc(C(=O)N2CCN(C(=O)C3CCNCC3)CC2)c(Cl)c1` [Example Z50, N-[3-chloro-4-(4-isonipecotoylpiperazine-1-carbonyl)phenyl]-5-[1-(2-chloro-4-pyridyl)-3-(trifluoromethyl)pyrazol-4-yl]-1-methyl-imidazole-2-carboxamide], the IC90 was found to be 800 nM. Same read-out and setting: to `Cn1c(-c2cn(-c3ccc(N)cn3)nc2C(F)(F)F)cnc1C(=O)Nc1ccc(C(=O)N2CC[C@@H](CNC(=O)[C@@H]3C[C@@H](O)CN3)C2)c(Cl)c1` [Example Z39, 5-[1-(5-amino-2-pyridyl)-3-(trifluoromethyl)pyrazol-4-yl]-N-[3-chloro-4-[(3S)-3-[[[(2S,4R)-4-hydroxyprolyl]amino]methyl]pyrrolidine-1-carbonyl]phenyl]-1-methyl-imidazole-2-carboxamide] belongs 580 nM. For the molecule `C[C@@H]1CN(C(=O)c2ccc(NC(=O)c3ncc(-c4cn(-c5ccc(N)cn5)nc4C(F)(F)F)n3C)cc2Cl)CCCN1` [Example Z52, 5-[1-(5-amino-2-pyridyl)-3-(trifluoromethyl)pyrazol-4-yl]-N-[3-chloro-4-[(3R)-3-methyl-1,4-diazepane-1-carbonyl]phenyl]-1-methyl-imidazole-2-carboxamide], the IC90 stood at 1270 nM. Same read-out and setting: the value for `Cn1c(-c2cn(-c3ccc(N)cn3)nc2C(F)(F)F)cnc1C(=O)Nc1ccc(C(=O)N2CC3CN(C(=O)[C@@H]4C[C@@H](O)CN4)CC3C2)c(Cl)c1` (stereo partly drawn) [Example Z37, 5-[1-(5-amino-2-pyridyl)-3-(trifluoromethyl)pyrazol-4-yl]-N-[3-chloro-4-[5-[(2S,4R)-4-hydroxyprolyl]-1,3,3a,4,6,6a-hexahydropyrrolo[3,4-c]pyrrole-2-carbonyl]phenyl]-1-methyl-imidazole-2-carboxamide] was 500 nM.

Regarding `CN(C(=O)[C@@H]1C[C@@H](O)CN1)C1CCN(C(=O)c2ccc(NC(=O)c3ncc(-c4cn(-c5ccc(N)cn5)nc4C(F)(F)F)n3C)cc2Cl)CC1` [Example Z46, 5-[1-(5-amino-2-pyridyl)-3-(trifluoromethyl)pyrazol-4-yl]-N-[3-chloro-4-[4-[[(2S,4R)-4-hydroxyprolyl]-methyl-amino]piperidine-1-carbonyl]phenyl]-1-methyl-imidazole-2-carboxamide], the IC90 was 390 nM. With `COc1cc(-n2cc(-c3cnc(C(=O)Nc4ccc(C(=O)N5CCN(C(=O)C6CCNCC6)CC5)c(Cl)c4)n3C)c(C(F)(F)F)n2)ncn1` [Example Z49, N-[3-chloro-4-(4-isonipecotoylpiperazine-1-carbonyl)phenyl]-5-[1-(6-methoxypyrimidin-4-yl)-3-(trifluoromethyl)pyrazol-4-yl]-1-methyl-imidazole-2-carboxamide], the IC90 was found to be 840 nM. Consider `Cn1c(-c2cn(-c3ccc(N)cn3)nc2C(F)(F)F)cnc1C(=O)Nc1ccc(C(=O)N[C@H]2C[C@H](N)C2)c(Cl)c1` [Example Z19, N-[4-[trans-(3-aminocyclobutyl)carbamoyl]-3-chloro-phenyl]-5-[1-(5-amino-2-pyridyl)-3-(trifluoromethyl)pyrazol-4-yl]-1-methyl-imidazole-2-carboxamide], for which the IC90 came to 950 nM. For the molecule `COc1ccc(-n2cc(-c3cnc(C(=O)Nc4ccc(C(=O)N5CCN(C(=O)C6CCNCC6)CC5)c(Cl)c4)n3C)c(C(F)(F)F)n2)cn1` [Example Z75, N-[3-chloro-4-(4-isonipecotoylpiperazine-1-carbonyl)phenyl]-5-[1-(6-methoxy-3-pyridyl)-3-(trifluoromethyl)pyrazol-4-yl]-1-methyl-imidazole-2-carboxamide], the IC90 turned out to be 1110 nM.

For `COc1nccc(-n2cc(-c3cnc(C(=O)Nc4ccc(C(=O)N5CCN(C(=O)C6CCNCC6)CC5)c(Cl)c4)n3C)c(C(F)(F)F)n2)n1` [Example C6, N-[3-chloro-4-[4-(piperidine-4-carbonyl)piperazine-1-carbonyl]phenyl]-5-[1-(2-methoxypyrimidin-4-yl)-3-(trifluoromethyl)pyrazol-4-yl]-1-methyl-imidazole-2-carboxamide], the IC90 is 890 nM.

Turning to `Cn1c(-c2cn(-c3ccc(N)cn3)nc2C(F)(F)F)cnc1C(=O)Nc1ccc(C(=O)N2CCN(C(=O)CN3CCC(O)C3)CC2)c(Cl)c1` (stereo not shown) [Example C16, 5-[1-(5-amino-2-pyridyl)-3-(trifluoromethyl)pyrazol-4-yl]-N-[3-chloro-4-[4-[2-(3-hydroxypyrrolidin-1-yl)acetyl]piperazine-1-carbonyl]phenyl]-1-methyl-imidazole-2-carboxamide], the IC90 is 260 nM. In the case of `CNc1ccc(-n2cc(-c3cnc(C(=O)Nc4ccc(C(=O)N5CCN(C(=O)CN6CCC(O)C6)CC5)c(Cl)c4)n3C)c(C(F)(F)F)n2)nc1` (stereo not shown) [Example D5, N-[3-chloro-4-[4-[2-(3-hydroxypyrrolidin-1-yl)acetyl]piperazine-1-carbonyl]phenyl]-1-methyl-5-[1-[5-(methylamino)-2-pyridyl]-3-(trifluoromethyl)pyrazol-4-yl]imidazole-2-carboxamide], the IC90 was found to be 310 nM.

Staying with this test, now noted: Acinetobacter baumannii, ATCC17961, 16 h, read-out: ATCC 17961 IC90.
Take `Cn1c(-c2cn(-c3ccc(N)cn3)nc2C(F)(F)F)cnc1C(=O)Nc1ccc(C(=O)N2CCC(CN3CCNCC3=O)CC2)c(Cl)c1` [Example I1, 5-[1-(5-Amino-2-pyridyl)-3-(trifluoromethyl)pyrazol-4-yl]-N-[3-chloro-4-[4-[(2-oxopiperazin-1-yl)methyl]piperidine-1-carbonyl]phenyl]-1-methyl-imidazole-2-carboxamide]: the IC90 is 1500 nM. Consider `Cn1c(-c2cn(-c3ncccn3)nc2C(F)(F)F)cnc1C(=O)Nc1ccc(C(=O)N2CCN(C(=O)C3CCNCC3)CC2)c(Cl)c1` [Example A1, N-[3-Chloro-4-[4-(piperidine-4-carbonyl)piperazine-1-carbonyl]phenyl]-1-methyl-5-[1-pyrimidin-2-yl-3-(trifluoromethyl)pyrazol-4-yl]imidazole-2-carboxamide], for which the IC90 is 690 nM.
